# In PubChem BioAssay AID1996:
# Conditions: buffer; pH 7.4; 200.0 µM
row,SMILES,solubility kinetic
1,Nc1cccc2c1C(=O)N(CCOc1ccc(F)cc1)C2=O,0.0084 mg/mL
2,O=C(CCCc1nc(-c2ccccc2)no1)NC1CCCC1,> 0.0449 mg/mL
3,COc1ccc(N2C(=O)CC(NCC#N)C2=O)cc1 (stereo not given),0.0331 mg/mL
4,CC12CCC(=O)N1C(C(=O)NCCc1ccccc1)CS2 (stereo not given),0.0376 mg/mL
5,Cc1[nH]c2ccc(C(=O)N3CCN(C)CC3)cc2c1C,> 0.0407 mg/mL
6,Cc1ccc(C(=O)Nc2ccc(OCc3ccccc3)cc2)s1,0.0038 mg/mL
7,Cc1cc(NC(=O)CS(=O)(=O)c2c[nH]c3ccccc23)no1,> 0.0479 mg/mL
8,CN(C)P(=O)(NC(=O)c1cccn1C)N(C)C,> 0.0387 mg/mL
9,COc1ccccc1C(=O)NCCC(=O)N(C)Cc1ccc(C)o1,> 0.0496 mg/mL
10,COc1nc(C)cc(C)c1S(=O)(=O)c1ccc(Cl)cc1,0.0017 mg/mL
11,Cc1ccn2c(=O)c(C(=O)O)cnc2c1,> 0.0306 mg/mL
12,Cc1cc(C)c(S(=O)(=O)c2cc(F)ccc2C)c(Cl)n1,0.0446 mg/mL
13,CCNC(=O)CCc1nc(-c2ccc(C)cc2)no1,> 0.0389 mg/mL
14,O=C(O)c1ccc[n+](Cc2ccc([N+](=O)[O-])cc2)c1.[Br-],> 0.0509 mg/mL
15,CCN1C(=O)Nc2cccc3cccc1c23,0.0049 mg/mL
16,CC(=O)N1CCC(O)(c2ccc3c(c2)OCO3)CC1,0.0371 mg/mL
17,CC(C)(CC(=O)O)CC(=O)Nc1ccc(Cl)c(Cl)c1,> 0.0456 mg/mL
18,CCC(C)c1ccc(NC(=O)c2[nH]c(C)c(C(C)=O)c2C)cc1 (stereo not given),0.0005 mg/mL
19,CC1CCCC(C)N1C(=O)COC(=O)c1cncc(Br)c1 (stereo not given),> 0.0533 mg/mL
20,CSc1ncccc1C(=O)OCC(=O)NC1CCCc2ccccc21 (stereo not given),0.0055 mg/mL

row,SMILES,solubility kinetic
1,Cc1cccc(N2CC(C)Cn3c2nc2c3c(=O)[nH]c(=O)n2C)c1 (stereo not given),0.027 mg/mL
2,O=[N+]([O-])c1cccc(C(O)C23CN4CN(CN(C4)C2)C3)c1 (stereo not given),> 0.0435 mg/mL
3,Cc1ccc(C(=O)N2CCN(c3ncccn3)CC2)c(C)c1,0.0275 mg/mL
4,COC(=O)c1ccc(Nc2c([N+](=O)[O-])ccc3nonc23)cc1,< 0.0002 mg/mL
5,COc1ccc(S(=O)(=O)NCc2cccnc2)c2ccccc12,0.0372 mg/mL
6,CCc1ccc(OCC(=O)O/N=C(\N)c2ccccn2)cc1,0.0379 mg/mL
7,COc1cc([N+](=O)[O-])cc2sc(NC(=O)C3CC3)nc12,0.0006 mg/mL
8,CCOc1ccc(S(=O)(=O)N(C)C2CCCCC2)cc1,0.0181 mg/mL
9,CCc1ccc(N2CN(CCc3ccccc3)CNC2=S)cc1,0.0016 mg/mL
10,O=C(CSc1ccccn1)N1CCNC1=O,> 0.0356 mg/mL
11,CCc1ccc(NC(=O)NCc2ccccn2)cc1,> 0.0383 mg/mL
12,Cc1ccccc1C(=O)N1CCC(C(=O)OCc2ccccn2)CC1,> 0.0508 mg/mL
13,CC(=O)Cc1cc2cc([N+](=O)[O-])ccc2oc1=O,> 0.0371 mg/mL
14,Cc1nn(C)cc1C(C)Nc1nc2nonc2nc1N1CCCCC1 (stereo not given),> 0.0514 mg/mL
15,Cc1ccccc1C(=O)NC(=S)N(C)C1CCCCC1,0.0414 mg/mL
16,O=C(COC(=O)c1ccc(O)cc1)Nc1nccs1,> 0.0417 mg/mL
17,Cc1c(NC(=O)C(C)OC(=O)c2ccccc2O)c(=O)n(-c2ccccc2)n1C (stereo not given),> 0.0593 mg/mL
18,Cc1cc(C)c(NC(=O)CN2CCCCCC2)c(C)c1,> 0.0412 mg/mL
19,Cc1cccc(C(=O)NCCCNC(=O)c2ccco2)c1,> 0.0429 mg/mL
20,N#C/C(=C\c1cccnc1)C(=O)Nc1ccc(S(N)(=O)=O)cc1,0.0366 mg/mL

row,SMILES,solubility kinetic
1,COCCOC(=O)C1=C(C)NC(=S)NC1c1cccs1 (stereo not given),> 0.0469 mg/mL
2,CCCCc1nnc(SCC(=O)Nc2nccs2)n1C,> 0.0467 mg/mL
3,CCCNC(=O)c1ccc2c(c1)S(=O)(=O)c1ccccc1C2=O,0.0079 mg/mL
4,Cl.OCCN1C2=NCCCN2c2ccccc21,> 0.0381 mg/mL
5,CCn1c(N2CCN(C(=O)c3ccco3)CC2)nc2ccccc21,0.0358 mg/mL
6,COc1ccc(/C=C/C(=O)Nc2ccc(C)c(S(=O)(=O)N3CCOCC3)c2)cc1,0.0074 mg/mL
7,CNC(=S)NCCc1ccccc1,0.0256 mg/mL
8,CC1CC1C(=O)OCC(=O)Nc1cc(S(=O)(=O)N2CCCCC2)ccc1Cl (stereo not given),0.0311 mg/mL
9,CCOC(=O)c1[nH]c(C)c(C(=O)/C=C/c2ccc(C(=O)O)cc2)c1C,> 0.0512 mg/mL
10,Cc1ccc(C(=O)N/C(=C\c2ccco2)C(=O)N2CCOCC2)cc1C,> 0.0532 mg/mL
11,O=C(/C=C/c1cccc([N+](=O)[O-])c1)OCC1CCCO1 (stereo not given),0.0344 mg/mL
12,COC(=O)N1CCCc2cc(C)ccc21,0.0155 mg/mL
13,Cc1ccc2cccc(OCc3ccc(Br)cc3)c2n1,0.0009 mg/mL
14,COc1ccc(Cl)cc1/C=C/c1ccc2cccc(O)c2n1,0.0008 mg/mL
15,CSc1nc2sc3c(c2c(=O)n1C)CCC3,0.0026 mg/mL
16,Cc1[nH]c2c(C)cccc2c(=O)c1CN1CCCCCC1,0.0395 mg/mL
17,CCC(=O)NC(=S)Nc1ccc(S(=O)(=O)NC2CCCCC2)cc1,0.0004 mg/mL
18,COc1ccc(/C=C/C(=O)c2c(C)cc(C)[nH]c2=O)c2ccccc12,0.0157 mg/mL
19,Cc1cc(Cl)ccc1OCCCC(=O)OCC(N)=O,0.0423 mg/mL
20,Cn1cccc1C(=O)OCC(=O)NCCc1ccccc1,> 0.0429 mg/mL
